Assay results as given in patent US11739101B2, “Bifunctional degraders of hematopoietic progenitor kinase and therapeutic uses thereof” (Nurix Therapeutics, Inc., priority 2020, dated 2023).

biological target: T1, HPK1 (Homo sapiens, UniProt Q92918); experiment: HPK1 Cellular HiBiT Degradation Assay; assay type: cell-based; conditions: HiBiT-tagged HPK1 Jurkat cells, 24 hours, 10 uM to 0.1 nM; Dmax = 100 minus lowest % HPK1 remaining vs DMSO vehicle
T1 construct: A HiBiT tag was introduced by CRISPR on the N terminus of HPK1 in Jurkat cells; host or cells: Jurkat (ATCC TIB-152), monoclonal CRISPR HiBiT knock-in line
In short: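 Jurkat cells with CRISPR N-terminal HiBiT-tagged HPK1 were exposed to an 11-point 3.16-fold dilution series, 10 uM to 0.1 nM final, for 24 hours at 37° C./5% CO2. HPK1 was read by HiBiT lytic luminescence against DMSO as 100% and parental cells as background. Dmax is 100 minus the lowest % remaining from a four-parameter fit, with a parallel CellTiter-Glo viability check.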

T1 sequence (Q92918 whole entry): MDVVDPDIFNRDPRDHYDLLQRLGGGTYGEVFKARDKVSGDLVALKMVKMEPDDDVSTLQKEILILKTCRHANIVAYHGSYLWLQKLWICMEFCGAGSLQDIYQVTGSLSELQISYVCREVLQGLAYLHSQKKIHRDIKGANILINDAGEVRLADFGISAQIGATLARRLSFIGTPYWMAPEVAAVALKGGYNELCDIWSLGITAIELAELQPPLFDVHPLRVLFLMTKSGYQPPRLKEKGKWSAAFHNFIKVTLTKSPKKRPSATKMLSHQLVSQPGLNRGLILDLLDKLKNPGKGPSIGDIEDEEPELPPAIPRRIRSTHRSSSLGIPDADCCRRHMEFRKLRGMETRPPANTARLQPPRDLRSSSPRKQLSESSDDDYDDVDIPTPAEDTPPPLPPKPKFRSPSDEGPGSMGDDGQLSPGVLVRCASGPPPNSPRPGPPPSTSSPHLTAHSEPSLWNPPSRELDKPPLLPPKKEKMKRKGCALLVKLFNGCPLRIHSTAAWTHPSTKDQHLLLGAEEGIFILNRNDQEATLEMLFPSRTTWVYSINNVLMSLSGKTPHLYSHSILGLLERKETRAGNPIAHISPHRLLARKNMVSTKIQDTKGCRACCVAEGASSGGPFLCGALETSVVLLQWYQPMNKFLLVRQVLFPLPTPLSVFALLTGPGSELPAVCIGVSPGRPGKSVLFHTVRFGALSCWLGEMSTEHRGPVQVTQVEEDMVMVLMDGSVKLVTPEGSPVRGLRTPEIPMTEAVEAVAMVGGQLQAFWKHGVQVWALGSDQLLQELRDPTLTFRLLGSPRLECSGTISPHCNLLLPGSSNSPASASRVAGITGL

With `Cc1cc(F)c(Nc2nc(-c3ccc4c(c3)N([C@H]3C[C@@H](N5CCCCC5)C3)C(=O)C43CCN(C(=O)CCCCCCCC(=O)N[C@H](C(=O)N4C[C@H](O)C[C@H]4C(=O)N[C@@H](C)c4ccc(-c5scnc5C)cc4)C(C)(C)C)CC3)cc3ncn(C(C)C)c23)cc1C(=O)NC(C)C` [Example 10, (2S,4R)-1-((S)-2-(9-(6-(4-((2-fluoro-5-(isopropylcarbamoyl)-4-methylphenyl)amino)-3-isopropyl-3H-imidazo[4,5-c]pyridin-6-yl)-2-oxo-1-((1s,3s)-3-(piperidin-1-yl)cyclobutyl)spiro[indoline-3,4′-piperidin]-1′-yl)-9-oxononanamido)-3,3-dimethylbutanoyl)-4-hydroxy-N—((S)-1-(4-(4-methylthiazol-5-yl)phenyl)ethyl)pyrrolidine-2-carboxamide] as the compound, how does the Dmax read?
Its Dmax is greater than 65%.

How did the Dmax turn out when `Cc1cc(F)c(Nc2nc(-c3ccc4c(c3)N([C@H]3C[C@@H](N5CCCCC5)C3)C(=O)C43CCN(C(=O)CCOCCOCCOCCOCCNc4cccc5c4C(=O)N(C4CCC(=O)NC4=O)C5=O)CC3)cc3ncn(C(C)C)c23)cc1C(=O)NC(C)C` (stereo partly shown) [Example 2, 5-((6-(1′-(1-((2-(2,6-dioxopiperidin-3-yl)-1,3-dioxoisoindolin-4-yl)amino)-3,6,9,12-tetraoxapentadecan-15-oyl)-2-oxo-1-((1s,3s)-3-(piperidin-1-yl)cyclobutyl)spiro[indoline-3,4′-piperidin]-6-yl)-3-isopropyl-3H-imidazo[4,5-c]pyridin-4-yl)amino)-4-fluoro-N-isopropyl-2-methylbenzamide] was run?
Its Dmax is 45 to 65%.

For `Cc1cc(F)c(Nc2nc(-c3ccc4c(c3)N([C@H]3C[C@@H](N5CCCCC5)C3)C(=O)C43CCN(C(=O)[C@H]4CC[C@@H](C(=O)N5CCC(N(C)c6cccc7c6C(=O)N(C6CCC(=O)NC6=O)C7=O)CC5)CC4)CC3)cc3ncn(C(C)C)c23)cc1C(=O)NC(C)C` (stereo partly drawn) [Example 62, 4-fluoro-2-methyl-5-[(6-{2-oxo-1-[(1s,3s)-3-(piperidin-1-yl)cyclobutyl]-1′-[(1S,4s)-4-(4-{[2-(2,6-dioxopiperidin-3-yl)-1,3-dioxo-2,3-dihydro-1H-isoindol-4-yl](methyl)amino}piperidine-1-carbonyl)cyclohexanecarbonyl]-1,2-dihydrospiro[indole-3,4′-piperidin]-6-yl}-3-(propan-2-yl)-3H-imidazo[4,5-c]pyridin-4-yl)amino]-N-(propan-2-yl)benzamide], which Dmax is on record?
The Dmax was 45 to 65%.

Which “Cellular HPK1 HiBiT: Dmax (%)” value does the source give for `Cc1cc(F)c(Nc2nc(-c3ccc4c(c3)N(C3CC(N5CCCCC5)C3)C(=O)C43CCN(C(=O)C4CCN(C(=O)C5CCN(c6ccc7c(c6)C(=O)N(C6CCC(=O)NC6=O)C7=O)CC5)CC4)CC3)cc3ncn(C(C)C)c23)cc1C(=O)NC(C)C` (stereo not shown) [Example 41, 5-[(6-{1′-[1-(1-{2-[2,6-dioxopiperidin-3-yl]-1,3-dioxo-2,3-dihydro-1H-isoindol-5-yl}piperidine-4-carbonyl)piperidine-4-carbonyl]-2-oxo-1-[(1s,3s)-3-(piperidin-1-yl)cyclobutyl]-1,2-dihydrospiro[indole-3,4′-piperidin]-6-yl}-3-(propan-2-yl)-3H-imidazo[4,5-c]pyridin-4-yl)amino]-4-fluoro-2-methyl-N-(propan-2-yl)benzamide] here?
The value was “B (45%≤B≤65%)”.

Which Dmax does the source give for `Cc1cc(F)c(Nc2nc(-c3ccc4c(c3)N([C@H]3C[C@@H](N5CCCCC5)C3)C(=O)C43CCN(C(=O)[C@@H]4CCN(C(=O)N5CCC(Nc6cccc7c6C(=O)N(C6CCC(=O)NC6=O)C7=O)CC5)C4)CC3)cc3ncn(C(C)C)c23)cc1C(=O)NC(C)C` (stereo partly drawn) [Example 69, 5-[(6-{1′-[(3R)-1-[4-({2-[2,6-dioxopiperidin-3-yl]-1,3-dioxo-2,3-dihydro-1H-isoindol-4-yl}amino)piperidine-1-carbonyl]pyrrolidine-3-carbonyl]-2-oxo-1-[(1S,3s)-3-(piperidin-1-yl)cyclobutyl]-1,2-dihydrospiro[indole-3,4′-piperidin]-6-yl}-3-(propan-2-yl)-3H-imidazo[4,5-c]pyridin-4-yl)amino]-4-fluoro-2-methyl-N-(propan-2-yl)benzamide] here?
Its Dmax is 45 to 65%.

How did the Dmax turn out when `Cc1cc(F)c(Nc2nc(-c3ccc4c(c3)N([C@H]3C[C@@H](N5CCCCC5)C3)C(=O)C43CCN(C(=O)[C@@H]4CCN(C(=O)[C@H]5CC[C@H](Nc6cccc7c6C(=O)N(C6CCC(=O)NC6=O)C7=O)CC5)C4)CC3)cc3ncn(C(C)C)c23)cc1C(=O)NC(C)C` (stereo partly drawn) [Example 52, 4-fluoro-2-methyl-5-[(6-{2-oxo-1′-[(3R)-1-[(1R,4R)-4-({2-[2,6-dioxopiperidin-3-yl]-1,3-dioxo-2,3-dihydro-1H-isoindol-4-yl}amino)cyclohexanecarbonyl]pyrrolidine-3-carbonyl]-1-[(1s,3s)-3-(piperidin-1-yl)cyclobutyl]-1,2-dihydrospiro[indole-3,4′-piperidin]-6-yl}-3-(propan-2-yl)-3H-imidazo[4,5-c]pyridin-4-yl)amino]-N-(propan-2-yl)benzamide] was run?
Its Dmax is 45 to 65%.

How did the Dmax turn out when `Cc1cc(F)c(Nc2nc(-c3ccc4c(c3)N([C@H]3C[C@@H](N5CCCCC5)C3)C(=O)C43CCN(C(=O)C4(C)CCN(C(=O)C5CCN(c6ccc7c(c6)C(=O)N(C6CCC(=O)NC6=O)C7=O)CC5)CC4)CC3)cc3ncn(C(C)C)c23)cc1C(=O)NC(C)C` (stereo partly shown) [Example 74, 5-[(6-{1′-[1-(1-{2-[2,6-dioxopiperidin-3-yl]-1,3-dioxoisoindol-5-yl}piperidine-4-carbonyl)-4-methylpiperidine-4-carbonyl]-2-oxo-1-[(1s,3s)-3-(piperidin-1-yl)cyclobutyl]spiro[indole-3,4′-piperidin]-6-yl}-3-isopropylimidazo[4,5-c]pyridin-4-yl)amino]-4-fluoro-N-isopropyl-2-methylbenzamide] was run?
Its Dmax is 45 to 65%.

Which Dmax does the source give for `Cc1cc(F)c(Nc2nc(-c3ccc4c(c3)N([C@H]3C[C@@H](N5CCCCC5)C3)C(=O)C43CCN(C(=O)c4ccn(C5CCN(Cc6cccc7c6C(=O)N(C6CCC(=O)NC6=O)C7=O)CC5)n4)CC3)cc3ncn(C(C)C)c23)cc1C(=O)NC(C)C` (stereo partly shown) [Example 65, 5-{[6-(1′-{1-[1-({2-[2,6-dioxopiperidin-3-yl]-1,3-dioxo-2,3-dihydro-1H-isoindol-4-yl}methyl)piperidin-4-yl]-1H-pyrazole-3-carbonyl}-2-oxo-1-[(1s,3s)-3-(piperidin-1-yl)cyclobutyl]-1,2-dihydrospiro[indole-3,4′-piperidin]-6-yl)-3-(propan-2-yl)-3H-imidazo[4,5-c]pyridin-4-yl]amino}-4-fluoro-2-methyl-N-(propan-2-yl)benzamide] here?
Its Dmax is 45 to 65%.

For `Cc1cc(F)c(Nc2nc(-c3ccc4c(c3)N([C@H]3C[C@@H](N5CCCCC5)C3)C(=O)C43CCN(C(=O)c4ccc(C5CCN(CC(=O)NCCNc6cccc7c6C(=O)N(C6CCC(=O)NC6=O)C7=O)CC5)cc4)CC3)cc3ncn(C(C)C)c23)cc1C(=O)NC(C)C` (stereo partly shown) [Example 88, 5-[(6-{1′-[4-(1-{[(2-{[2-(2,6-dioxopiperidin-3-yl)-1,3-dioxoisoindol-4-yl]amino}ethyl)carbamoyl]methyl}piperidin-4-yl)benzoyl]-2-oxo-1-[(1s,3s)-3-(piperidin-1-yl)cyclobutyl]spiro[indole-3,4′-piperidin]-6-yl}-3-isopropylimidazo[4,5-c]pyridin-4-yl)amino]-4-fluoro-N-isopropyl-2-methylbenzamide], which Dmax is on record?
The Dmax was greater than 65%.

How did the Dmax turn out when `Cc1cc(F)c(Nc2nc(-c3ccc4c(c3)N([C@H]3C[C@@H](N5CCCCC5)C3)C(=O)C43CCN(C(=O)C4CCN(C(=O)C5CCN(c6ccc7c(c6)C(=O)N(C6CCC(=O)NC6=O)C7=O)CC5)C4)CC3)cc3ncn(C(C)C)c23)cc1C(=O)NC(C)C` (stereo partly shown) [Example 40] was run?
The Dmax was 45 to 65%.

How did the Dmax turn out when `Cc1cc(F)c(Nc2nc(-c3ccc4c(c3)N([C@H]3C[C@@H](N5CCCCC5)C3)C(=O)C43CCN(C(=O)CCCCCCCCCNc4cccc5c4C(=O)N(C4CCC(=O)NC4=O)C5=O)CC3)cc3ncn(C(C)C)c23)cc1C(=O)NC(C)C` (stereo partly shown) [Example 1, 5-((6-(1′-(10-((2-(2,6-dioxopiperidin-3-yl)-1,3-dioxoisoindolin-4-yl)amino)decanoyl)-2-oxo-1-((1s,3s)-3-(piperidin-1-yl)cyclobutyl)spiro[indoline-3,4′-piperidin]-6-yl)-3-isopropyl-3H-imidazo[4,5-c]pyridin-4-yl)amino)-4-fluoro-N-isopropyl-2-methylbenzamide] was run?
Its Dmax is less than 45%.

`Cc1cc(F)c(Nc2nc(-c3ccc4c(c3)N([C@H]3C[C@@H](N5CCCCC5)C3)C(=O)C43CCN(C(=O)CCOCCOCCOCCOCCOCCNc4cccc5c4C(=O)N(C4CCC(=O)NC4=O)C5=O)CC3)cc3ncn(C(C)C)c23)cc1C(=O)NC(C)C` (stereo partly shown) [Example 12, 5-((6-(1′-(1-((2-(2,6-dioxopiperidin-3-yl)-1,3-dioxoisoindolin-4-yl)amino)-3,6,9,12,15-pentaoxaoctadecan-18-oyl)-2-oxo-1-((1s,3s)-3-(piperidin-1-yl)cyclobutyl)spiro[indoline-3,4′-piperidin]-6-yl)-3-isopropyl-3H-imidazo[4,5-c]pyridin-4-yl)amino)-4-fluoro-N-isopropyl-2-methylbenzamide] was tested. Which Dmax did it give?
Its Dmax is 45 to 65%.

For `Cc1cc(F)c(Nc2nc(-c3ccc4c(c3)N([C@H]3C[C@@H](N5CCCCC5)C3)C(=O)C43CCN(C(=O)C4CCN(CC5CCN(c6ccc7c(c6)C(=O)N(C6CCC(=O)NC6=O)C7=O)CC5)CC4)CC3)cc3ncn(C(C)C)c23)cc1C(=O)NC(C)C` (stereo partly shown) [Example 45, 5-{[6-(1′-{1-[(1-{2-[2,6-dioxopiperidin-3-yl]-1,3-dioxo-2,3-dihydro-1H-isoindol-5-yl}piperidin-4-yl)methyl]piperidine-4-carbonyl}-2-oxo-1-[(1s,3s)-3-(piperidin-1-yl)cyclobutyl]-1,2-dihydrospiro[indole-3,4′-piperidin]-6-yl)-3-(propan-2-yl)-3H-imidazo[4,5-c]pyridin-4-yl]amino}-4-fluoro-2-methyl-N-(propan-2-yl)benzamide], which Dmax is on record?
The Dmax was greater than 65%.
